Laboratory results: patent US10562857B2 (AFASCI, Inc., priority 2015, dated 2020)
Entries after “also recorded” stand apart in the source; their conditions may differ. Like-named read-outs stand apart in the source and are kept apart here.

How the values were obtained:
[1] = target: Cav2.2 (N-type Ca channel) (Homo sapiens, UniProt Q00975); assay: Patch clamp of Cav2.2 N-type Ca channel; format: cell-based; details: Table 2
DRG ion channels Na+ = assay: Sodium currents in DRG neurons, patch clamp; format: cell-based, rodent; details: Table 2
Description: (§1) All the procedures related to animal handling were in strict accordance with NIH guidelines and IACUC approved protocols. Briefly, the spine was taken out and split into two halves from the middle line after sacrificing the mice by decapitation. […] The DRG neurons were minced with fine scissors and incubated at 35° C. for 50 min. […] Finally the cells were dispersed onto poly-1-ornithine-coated cover slips and maintained in a modified Krebs solution with streptomycin sulfate (0.2 mM), Penicillin G Sodium (0.3 mM), and Gentamycin (0.1 mM) at 21° C. […] All experiments were performed at room temperature (around 21° C.). Whole-cell currents were recorded using a MultiClamp 700B amplifier and analyzed offline with pCLAMP10.4 software (Molecular Devices, LLC, Sunnyvale Calif., USA). […] The internal solution was composed (in mM) of 125 CsCl, 10 HEPES (acid), 10 EGTA (ethylene glycol tetraacetic acid), 1 CaCl2, 1 MgCl2, 4 MgATP and 0.3 […] 7.3-7.4 adjusted with CsOH; osmolality verified as 295 mOsm/kg). Since the sodium ions were absent in the external solution, tetrodoctoxin was not needed. […] To record sodium (Na^+) currents in DRG neurons, the external solution used the modified Krebs solution specified above. […] To record potassium currents in DRG neurons, the external solution used the modified Kreb's solution specified above. The internal solution was composed (in mM) of 65 KCl, 80 KF, 5 KOH, 10 EGTA, 2 MgATP (pH 7.3-7.4 adjusted with KOH). Recording electrodes were fabricated using a P-87 puller (Sutter Instrument Co., Novato, Calif., USA). […] All reagents were purchased from Sigma unless specified otherwise. […] Selectivity among the three subtypes of the Cav3 T-type channel, and off-target effects on other key ion channels of the representative example compounds are presented in Table 2. Sodium and potassium channels in the rodent DRG neurons were recorded and tested as described above. The human ether-a-go-go-related gene (hERG) encodes the rapidly activating potassium channel (IKr) contributing to the repolarization of the cardiac action potential. The blockade of hERG can lead to a QT prolongation in the electrocardiogram known as long QT syndrome (Sanguinetti, et al., 1995). Therefore the representative example compounds in Table 2 were tested against the hERG channel.

DRG ion channels K+ = assay: Potassium currents in DRG neurons, patch clamp; format: cell-based, rodent; details: Table 2
Description: as §1

[2] = Metabolic stability in rat liver microsomes; format: in vitro ADME
Excerpt: (§2) In vitro data of metabolic stability and protein binding as well as in vivo pharmacokinetic data for compounds of the invention can be generated using the techniques disclosed in, e.g., Obach, R. S. et al., J. Pharmacol. Exp. Ther. 283(1): 46-58 (1997), which is hereby incorporated by reference in its entirety. Various biological, pharmacokinetic and other properties of the compounds, including hepatic microsomal stability, determination of metabolites, binding to proteins such as plasma protein binding, and in vivo studies, including single-dose and multi-dose pharmacokinetic studies, can be determined using the protocols described in that publication and the publications cited therein. Other aspects and advantages of the present invention will become apparent from the above detailed description, as illustrated by way of example of the principles of the invention. The scope of the invention is to be defined by the claims appended hereto and their equivalents. Selected pharmacokinetic studies in vitro and in vivo in rats were performed for preferred compounds, for example EXAMPLE-128 and compared with two reference compounds ML218 and Z944 by a contract research organization (BioDuro, Inc., San Diego, US). Tables 3A and 3B summarize some of the in vitro and vivo pharmacodynamic and pharmacokinetic parameters, respectively.

[3] = Plasma protein binding, rat; format: in vitro ADME; details: for fraction unbound: read-out: PPB % (Rat) (converted)
Excerpt: as §2

Plasma stability, human = format: in vitro ADME
Excerpt: as §2

Plasma stability, rat = format: in vitro ADME
Excerpt: as §2

Rat pharmacokinetics = format: in vivo; details: for half-life / AUC / bioavailability: plasma; for AUC: read-out: Rat PK AUCfree; for bioavailability: read-out: Rat PK F (%) bioavailability
Excerpt: as §2

SNI rats = assay: Spared nerve injury (SNI) rats, von Frey monofilament test; format: in vivo, rat; details: for duration of elevated mechanical thresholds: 10 mg/kg P.O.; for mechanical pain threshold of left hindpaw (allodynia): 10 mg/kg oral gavage, P.O., 10 mg/kg
[4] = read-out: Rat Liver Microsomes Clint (μL/min/mg protein)
[5] = read-out: Rat Liver Microsomes t1/2
[6] = iv, read-out: Plasma t1/2 (h) iv (converted)
[7] = po, read-out: Plasma t1/2 (h) po (converted)

Sequence of Cav2.2 (N-type Ca channel) (Q00975 whole entry): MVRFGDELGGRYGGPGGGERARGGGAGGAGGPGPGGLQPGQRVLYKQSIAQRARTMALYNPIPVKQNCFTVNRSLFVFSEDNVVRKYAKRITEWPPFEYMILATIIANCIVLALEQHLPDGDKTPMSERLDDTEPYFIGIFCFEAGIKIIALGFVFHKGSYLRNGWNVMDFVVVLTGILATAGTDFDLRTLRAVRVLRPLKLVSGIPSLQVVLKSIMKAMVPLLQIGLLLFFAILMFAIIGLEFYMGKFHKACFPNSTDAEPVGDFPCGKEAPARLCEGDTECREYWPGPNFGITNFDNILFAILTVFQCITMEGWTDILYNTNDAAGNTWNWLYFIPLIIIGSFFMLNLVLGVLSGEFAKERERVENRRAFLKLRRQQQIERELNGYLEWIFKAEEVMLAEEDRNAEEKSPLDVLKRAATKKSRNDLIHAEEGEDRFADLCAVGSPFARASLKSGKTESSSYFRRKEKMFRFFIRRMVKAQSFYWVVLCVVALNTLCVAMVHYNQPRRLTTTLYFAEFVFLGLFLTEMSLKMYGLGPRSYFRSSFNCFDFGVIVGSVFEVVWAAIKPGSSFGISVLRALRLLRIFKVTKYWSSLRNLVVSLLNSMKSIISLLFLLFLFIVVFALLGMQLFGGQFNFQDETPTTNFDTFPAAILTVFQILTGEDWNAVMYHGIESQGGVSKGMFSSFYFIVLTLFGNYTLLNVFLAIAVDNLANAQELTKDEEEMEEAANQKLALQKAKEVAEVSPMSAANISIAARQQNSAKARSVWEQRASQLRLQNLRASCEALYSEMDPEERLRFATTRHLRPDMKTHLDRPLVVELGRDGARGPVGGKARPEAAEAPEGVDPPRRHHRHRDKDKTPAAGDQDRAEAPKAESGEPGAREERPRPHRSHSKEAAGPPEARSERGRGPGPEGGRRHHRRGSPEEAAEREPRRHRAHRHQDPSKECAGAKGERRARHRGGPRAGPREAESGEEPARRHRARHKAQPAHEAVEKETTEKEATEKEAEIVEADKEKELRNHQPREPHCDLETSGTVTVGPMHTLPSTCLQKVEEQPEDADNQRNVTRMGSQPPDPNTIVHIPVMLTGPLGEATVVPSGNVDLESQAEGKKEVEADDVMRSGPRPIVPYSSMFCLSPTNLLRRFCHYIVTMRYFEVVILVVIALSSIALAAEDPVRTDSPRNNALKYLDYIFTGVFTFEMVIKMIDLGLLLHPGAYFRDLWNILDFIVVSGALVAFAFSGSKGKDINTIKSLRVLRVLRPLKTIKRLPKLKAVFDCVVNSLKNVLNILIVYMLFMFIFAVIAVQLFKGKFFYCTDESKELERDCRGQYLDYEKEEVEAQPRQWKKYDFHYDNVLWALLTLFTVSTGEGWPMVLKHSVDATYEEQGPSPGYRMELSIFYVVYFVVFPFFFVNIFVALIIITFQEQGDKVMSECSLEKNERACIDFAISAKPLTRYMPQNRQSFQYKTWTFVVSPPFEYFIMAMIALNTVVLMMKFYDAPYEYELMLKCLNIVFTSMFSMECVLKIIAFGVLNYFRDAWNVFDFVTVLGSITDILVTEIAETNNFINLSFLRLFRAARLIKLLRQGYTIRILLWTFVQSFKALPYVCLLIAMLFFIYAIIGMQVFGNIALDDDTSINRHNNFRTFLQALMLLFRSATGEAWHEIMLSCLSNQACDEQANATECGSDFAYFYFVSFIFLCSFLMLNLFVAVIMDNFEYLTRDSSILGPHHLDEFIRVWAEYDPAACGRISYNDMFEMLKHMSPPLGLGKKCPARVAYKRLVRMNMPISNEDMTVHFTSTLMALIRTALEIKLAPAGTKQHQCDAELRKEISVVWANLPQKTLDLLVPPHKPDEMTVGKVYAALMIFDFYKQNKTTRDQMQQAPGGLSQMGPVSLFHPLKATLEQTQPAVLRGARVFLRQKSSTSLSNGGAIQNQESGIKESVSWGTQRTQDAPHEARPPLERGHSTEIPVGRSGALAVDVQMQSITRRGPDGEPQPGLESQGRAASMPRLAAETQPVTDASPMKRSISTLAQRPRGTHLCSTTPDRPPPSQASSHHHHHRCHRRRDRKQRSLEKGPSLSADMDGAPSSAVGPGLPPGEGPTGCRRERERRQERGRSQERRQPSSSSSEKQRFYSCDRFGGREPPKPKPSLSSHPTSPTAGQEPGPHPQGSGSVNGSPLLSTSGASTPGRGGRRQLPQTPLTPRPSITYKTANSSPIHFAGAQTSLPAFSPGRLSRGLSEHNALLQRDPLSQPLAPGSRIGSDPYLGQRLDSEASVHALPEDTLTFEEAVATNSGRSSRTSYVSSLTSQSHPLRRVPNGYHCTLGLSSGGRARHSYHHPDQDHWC
Sequence of Cav2.2 (N-type Ca channel) (P54289 25-1103 partner): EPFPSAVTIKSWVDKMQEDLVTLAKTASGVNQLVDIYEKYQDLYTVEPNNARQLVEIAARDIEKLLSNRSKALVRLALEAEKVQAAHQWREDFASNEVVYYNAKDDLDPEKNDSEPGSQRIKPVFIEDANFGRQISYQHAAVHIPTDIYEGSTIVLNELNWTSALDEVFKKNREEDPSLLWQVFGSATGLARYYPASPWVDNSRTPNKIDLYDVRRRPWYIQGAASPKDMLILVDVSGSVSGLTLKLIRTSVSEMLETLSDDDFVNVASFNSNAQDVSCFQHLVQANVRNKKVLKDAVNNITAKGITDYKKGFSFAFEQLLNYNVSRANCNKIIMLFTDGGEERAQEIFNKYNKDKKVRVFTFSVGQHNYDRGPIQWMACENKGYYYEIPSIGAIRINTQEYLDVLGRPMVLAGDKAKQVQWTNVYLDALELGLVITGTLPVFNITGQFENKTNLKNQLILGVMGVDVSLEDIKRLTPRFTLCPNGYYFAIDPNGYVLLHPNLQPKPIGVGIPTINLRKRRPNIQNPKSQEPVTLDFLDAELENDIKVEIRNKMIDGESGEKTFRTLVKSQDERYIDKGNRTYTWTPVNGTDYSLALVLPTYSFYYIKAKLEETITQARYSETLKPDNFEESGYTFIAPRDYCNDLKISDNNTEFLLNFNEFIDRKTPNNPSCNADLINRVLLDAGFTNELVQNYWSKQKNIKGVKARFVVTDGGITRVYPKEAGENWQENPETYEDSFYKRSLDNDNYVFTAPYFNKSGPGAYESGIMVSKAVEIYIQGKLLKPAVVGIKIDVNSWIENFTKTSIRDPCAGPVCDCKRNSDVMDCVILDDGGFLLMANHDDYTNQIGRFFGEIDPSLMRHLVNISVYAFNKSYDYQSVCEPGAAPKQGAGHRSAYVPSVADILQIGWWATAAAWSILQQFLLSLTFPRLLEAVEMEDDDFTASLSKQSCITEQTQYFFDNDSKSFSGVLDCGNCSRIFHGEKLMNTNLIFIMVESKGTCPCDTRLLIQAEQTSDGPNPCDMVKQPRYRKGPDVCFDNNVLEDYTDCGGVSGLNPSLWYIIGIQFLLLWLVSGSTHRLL
Sequence of Cav2.2 (N-type Ca channel) (Q08289 whole entry partner): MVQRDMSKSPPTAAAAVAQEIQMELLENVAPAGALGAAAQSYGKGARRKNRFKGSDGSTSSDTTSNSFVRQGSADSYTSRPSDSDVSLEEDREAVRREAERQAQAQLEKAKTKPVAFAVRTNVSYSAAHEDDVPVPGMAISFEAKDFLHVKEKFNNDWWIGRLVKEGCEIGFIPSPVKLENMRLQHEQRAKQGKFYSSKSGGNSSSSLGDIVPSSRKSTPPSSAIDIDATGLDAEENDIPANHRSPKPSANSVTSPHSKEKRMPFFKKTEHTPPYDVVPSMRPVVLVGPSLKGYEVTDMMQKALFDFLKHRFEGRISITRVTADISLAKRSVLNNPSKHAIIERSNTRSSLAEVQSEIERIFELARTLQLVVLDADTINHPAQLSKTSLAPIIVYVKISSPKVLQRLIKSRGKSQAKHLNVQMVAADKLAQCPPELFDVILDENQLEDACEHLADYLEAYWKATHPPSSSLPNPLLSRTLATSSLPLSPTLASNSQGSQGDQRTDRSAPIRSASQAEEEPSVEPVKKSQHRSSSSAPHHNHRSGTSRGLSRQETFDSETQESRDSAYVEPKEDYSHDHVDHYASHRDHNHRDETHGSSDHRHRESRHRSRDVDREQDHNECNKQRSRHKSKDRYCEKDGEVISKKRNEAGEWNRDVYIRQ

SMILES | IC50 [1] [µM] | IC50 (DRG ion channels Na+) [µM] | IC50 (DRG ion channels K+) [µM] | microsomal CLint [2, 4] [µL/min/mg] | half-life [2, 5] [h] | recovery [3] [%] | fraction unbound [3] | Plasma Stability @ 5 h % (Human) (Plasma stability, human) | Plasma Stability @ 5 h % (Rat) (Plasma stability, rat) [%] | Rat PK AUCtotal (μM*h) (Rat pharmacokinetics) [h/µM] | half-life (Rat pharmacokinetics; [6]) [h] | AUC (Rat pharmacokinetics) [µM·h] | bioavailability (Rat pharmacokinetics) [%] | duration of elevated mechanical thresholds (SNI rats) | mechanical pain threshold of left hindpaw (allodynia) (SNI rats) | half-life [2] [h] | microsomal CLint [2] [µL/min/mg] | half-life (Rat pharmacokinetics; [7]) [h]
CC(C)(C)CCN1C[C@@H]2[C@@H](CNC(=O)c3cc(Cl)cc(Cl)c3)[C@@H]2C1 [ML218, 3,5-Dichloro-N-[[(1α,5α,6-exo,6α)-3-(3,3-dimethylbutyl)-3-azabicyclo[3.1.0]hex-6-yl]methyl]benzamide, reference compound] | 20.7 | 55.6 | 79.7 | 5.5 | 2.1 | 94.9 | 0.108 | 97.9/ % | 99.2 | 0.071 | 236 | 0.007 | 28 |  |  |  |  | 
CC(C)(C)NC(=O)CN1CCC2(CC1)CC2NC(=O)c1cc(F)cc(Cl)c1 (single isomer, unassigned) [Example 128, (S)—N-(6-(2-(tert-Butylamino)-2-oxoethyl)-6-azaspiro[2.5]octan-1-yl)-3-chloro-5-fluorobenzamide or (R)—N-(6-(2-(tert-Butylamino)-2-oxoethyl)-6-azaspiro[2.5]octan-1-yl)-3-chloro-5-fluorobenzamide] | > 10 | > 100 | > 100 |  |  | 90.4 | 0.242 | 95.7/ % | 98.3 | 4.1 | 3.34 | 1 | 62 | approximately 4 hours | elevated mechanical thresholds; also recorded: reduced allodynia | 5.25 | 2.2 | 3.66
CC(C)(C)NC(=O)CN1CCC(CNC(=O)c2cc(F)cc(Cl)c2)CC1 [Z944, reference compound] | > 30 | > 30 | > 30 | 13.2 | 0.875 | 91.1 | 0.287 | 100/ % | 100 | 0.51 | 1.5 | 0.14 | 55 | approximately 4 hours | elevated mechanical thresholds; also recorded: reduced allodynia |  |  | 2.26
